According to ChEMBL document CHEMBL3396996, “Catechol-based substrates of chalcone synthase as a scaffold for novel inhibitors of PqsD” (Eur J Med Chem, 2015):
The source made the active and inactive calls. No cut-off for these calls is given here.

Test system: Pseudomonas aeruginosa PA14
Test: Inhibition of Pseudomonas aeruginosa PA14 PqsH transposon mutant assessed as extracellular level of HHQ after 16 hrs

**Q.** Which Activity does the source give for `COC(=O)CCc1ccc(O)c(O)c1` here?
**A.** 17 µM

**Q.** With `COC(=O)Cc1ccc(O)c(O)c1` as the compound, how does the Activity read?
**A.** 24 µM

**Q.** Which Activity does the source give for `COC(=O)/C=C/c1ccc(O)c(O)c1` [METHYLCAFFEATE] here?
**A.** 31 µM

**Q.** With `CC(C)OC(=O)CCc1ccc(O)c(O)c1` as the compound, how does the Activity read?
**A.** 16 µM

**Q.** For `COC(=O)CCCc1ccc(O)c(O)c1`, which Activity is on record?
**A.** 18 µM

**Q.** With `CCOC(=O)CCc1ccc(O)c(O)c1` as the compound, how does the Activity read?
**A.** 17 µM

Test system: Pseudomonas aeruginosa PA14
Test: Inhibition of Pseudomonas aeruginosa PA14 PqsH transposon mutant assessed as extracellular level of HHQ at 250 uM after 16 hrs

**Q.** `O=C(O)CCc1ccc(O)c(O)c1` [DIHYDROCAFFEIC ACID] was tested. Which inhibition did it give?
**A.** < 10%

**Q.** With `CNC(=O)CCc1ccc(O)c(O)c1` as the compound, how does the inhibition read?
**A.** < 10%

**Q.** For `O=C(O)/C=C/c1ccccc1`, which inhibition is on record?
**A.** < 10%

**Q.** Which inhibition does the source give for `COC(=O)/C=C/c1ccc(F)c(F)c1` here?
**A.** < 10%

**Q.** `O=C(CCc1ccc(O)c(O)c1)OCc1ccccc1` was tested. Which inhibition did it give?
**A.** < 10%

**Q.** For `COC(=O)/C=C/c1ccc(O)cc1`, which inhibition is on record?
**A.** < 10%

**Q.** For `O=C(O)/C=C/c1ccc(O)cc1`, which inhibition is on record?
**A.** < 10%

**Q.** With `O=C(O)/C=C/c1ccsc1` as the compound, how does the inhibition read?
**A.** < 10%

**Q.** For `COC(=O)CCc1ccc2c(c1)OCO2`, which inhibition is on record?
**A.** < 10%

Molecular target: T1, 2-heptyl-4(1H)-quinolone synthase PqsD (Pseudomonas aeruginosa) (UniProt A0A0C7ACN7)
T1 sequence (whole entry): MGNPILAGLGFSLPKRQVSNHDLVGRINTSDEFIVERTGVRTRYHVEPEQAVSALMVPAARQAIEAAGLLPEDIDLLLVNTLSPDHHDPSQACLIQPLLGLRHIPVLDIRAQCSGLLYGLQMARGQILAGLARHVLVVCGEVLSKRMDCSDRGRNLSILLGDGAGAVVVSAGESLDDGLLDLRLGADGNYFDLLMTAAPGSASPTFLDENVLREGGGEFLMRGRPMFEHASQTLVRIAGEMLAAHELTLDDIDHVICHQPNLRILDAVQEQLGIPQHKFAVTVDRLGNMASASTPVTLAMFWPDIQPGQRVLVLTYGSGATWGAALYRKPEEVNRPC
Test: Inhibition of Pseudomonas aeruginosa recombinant PqsD expressed in Escherichia coli BL21 (lambdaDE3) using ACoA/beta-ketodecanoic acid as substrate at 50 uM after 10 mins

**Q.** `O=C(O)/C=C/c1ccoc1` was tested. Which inhibition did it give?
**A.** 12%

**Q.** `COC(=O)CCc1ccc(O)cc1` was tested. Which inhibition did it give?
**A.** < 10%

**Q.** For `O=C(O)/C=C/c1cccc(O)c1`, which inhibition is on record?
**A.** < 10%

**Q.** For `COc1cc(/C=C/C(=O)O)ccc1O`, which inhibition is on record?
**A.** < 10%

**Q.** For `O=C(O)/C=C/c1ccc(O)c(O)c1`, which inhibition is on record?
**A.** 26%

**Q.** Which inhibition does the source give for `O=C(O)/C=C/c1ccc(F)c(F)c1` here?
**A.** 18%

**Q.** Which inhibition does the source give for `COC(=O)CCc1ccc([N+](=O)[O-])cc1` here?
**A.** < 10%

**Q.** `COC(=O)CCc1ccc(C)cc1` was tested. Which inhibition did it give?
**A.** < 10%

**Q.** For `O=C(O)/C=C/c1ccccc1`, which inhibition is on record?
**A.** 33%

**Q.** For `COC(=O)/C=C/c1ccc(F)c(F)c1`, which inhibition is on record?
**A.** < 10%

**Q.** Which inhibition does the source give for `COC(=O)/C=C/c1ccc(O)cc1` here?
**A.** 22%

**Q.** Which inhibition does the source give for `O=C(O)/C=C/c1ccc(O)cc1` here?
**A.** 30%

**Q.** `COC(=O)/C=C/c1ccccc1` was tested. Which inhibition did it give?
**A.** < 10%

**Q.** How did the inhibition turn out when `O=C(O)/C=C/c1ccsc1` was run?
**A.** 12%

**Q.** Which inhibition does the source give for `COC(=O)CCc1ccc2c(c1)OCO2` here?
**A.** 37%

**Q.** For `COC(=O)CCc1ccc(N)cc1`, which inhibition is on record?
**A.** < 10%

Molecular target: T1, 2-heptyl-4(1H)-quinolone synthase PqsD (Pseudomonas aeruginosa)
Test: Binding affinity to Pseudomonas aeruginosa recombinant his6-tagged PqsD expressed in Escherichia coli BL21 (lambdaDE3) using AcoA as substrate at 250 to 500 uM incubated for 40 mins prior to compound addition followed by wash out for 30 mins by SPR analysis

**Q.** Which Activity does the source give for `COC(=O)/C=C/c1ccc(O)c(O)c1` [METHYLCAFFEATE] here?
**A.** inactive

**Q.** `COC(=O)/C=C/c1ccc(O)cc1` was tested. Which Activity did it give?
**A.** inactive

**Q.** For `COC(=O)/C=C/c1ccccc1`, which Activity is on record?
**A.** inactive

Test system: Pseudomonas aeruginosa PA14
Test: Inhibition of Pseudomonas aeruginosa PA14 PqsH transposon mutant assessed as extracellular level of HHQ at 500 uM after 16 hrs

**Q.** With `O=C(O)/C=C/c1ccc(O)c(O)c1` as the compound, how does the inhibition read?
**A.** 10%

Molecular target: T1, 2-heptyl-4(1H)-quinolone synthase PqsD (Pseudomonas aeruginosa)
Test: Binding affinity to Pseudomonas aeruginosa recombinant his6-tagged PqsD expressed in Escherichia coli BL21 (lambdaDE3) at 250 to 500 uM by SPR analysis

**Q.** With `CC(C)OC(=O)CCc1ccc(O)c(O)c1` as the compound, how does the Activity read?
**A.** Active

**Q.** For `COC(=O)CCCc1ccc(O)c(O)c1`, which Activity is on record?
**A.** Active

**Q.** `O=C(CCc1ccc(O)c(O)c1)OCc1ccccc1` was tested. Which Activity did it give?
**A.** Active

Molecular target: T2, 2-heptyl-4(1H)-quinolone synthase PqsD (Pseudomonas aeruginosa, UniProt A0A0C7ACN7)
T2 sequence (A0A0C7ACN7 whole entry): T1 sequence (whole entry)
Test: Inhibition of Pseudomonas aeruginosa recombinant PqsD expressed in Escherichia coli BL21 (lambdaDE3) using ACoA/beta-ketodecanoic acid as substrate after 10 mins

**Q.** Which IC50 does the source give for `COC(=O)CCc1ccc(O)c(O)c1` here?
**A.** 23 µM

**Q.** With `COC(=O)Cc1ccc(O)c(O)c1` as the compound, how does the IC50 read?
**A.** 23 µM

**Q.** How did the IC50 turn out when `O=C(O)CCc1ccc(O)c(O)c1` [DIHYDROCAFFEIC ACID] was run?
**A.** 27 µM

**Q.** How did the IC50 turn out when `CNC(=O)CCc1ccc(O)c(O)c1` was run?
**A.** 20 µM

**Q.** With `COC(=O)/C=C/c1ccc(O)c(O)c1` [METHYLCAFFEATE] as the compound, how does the IC50 read?
**A.** 51 µM

**Q.** How did the IC50 turn out when `CC(C)OC(=O)CCc1ccc(O)c(O)c1` was run?
**A.** 8.6 µM

**Q.** `COC(=O)CCCc1ccc(O)c(O)c1` was tested. Which IC50 did it give?
**A.** 7.9 µM

**Q.** How did the IC50 turn out when `CCOC(=O)CCc1ccc(O)c(O)c1` was run?
**A.** 14 µM

**Q.** How did the IC50 turn out when `O=C(CCc1ccc(O)c(O)c1)OCc1ccccc1` was run?
**A.** 5.9 µM
